Reference: the NIST ThermoML archive (doi:10.1016/j.jct.2013.08.021)
± gives the expanded uncertainty stated by the source.

Tests used:
[1] = 101 kPa, Liquid; for speed of sound: Sing-around technique in a fixed-path interferometer; for mass density: Vibrating tube method
[2] = refractive index (Na D-line) (dimensionless); details: 101.33 kPa, Liquid, Standard Abbe refractometry
[3] = xn = mol fraction of the nth substance listed; details: 101 kPa, Liquid, x1 = 1; for speed of sound: Sing-around technique in a fixed-path interferometer; for mass density: Vibrating tube method
[4] = refractive index (Na D-line) (dimensionless); xn = mol fraction of the nth substance listed; details: 101 kPa, Liquid, Standard Abbe refractometry, x1 = 1

| Compound | speed of sound ([1]; 298.15 K) [m/s] | mass density ([1]; 298.15 K) [kg/m3] | speed of sound ([1]; 303.15 K) [m/s] | mass density ([1]; 303.15 K) [kg/m3] | speed of sound ([1]; 308.15 K) [m/s] | mass density ([1]; 308.15 K) [kg/m3] | refractive index ([2]; 298.15 K) | refractive index ([2]; 303.15 K) | refractive index ([2]; 308.15 K) | speed of sound ([3]; 298.15 K) [m/s] | mass density ([3]; 298.15 K) [kg/m3] | speed of sound ([3]; 303.15 K) [m/s] | mass density ([3]; 303.15 K) [kg/m3] | speed of sound ([3]; 308.15 K) [m/s] | mass density ([3]; 308.15 K) [kg/m3] | refractive index ([4]; 298.15 K) | refractive index ([4]; 303.15 K) | refractive index ([4]; 308.15 K) |
| --- | --- | --- | --- | --- | --- | --- | --- | --- | --- | --- | --- | --- | --- | --- | --- | --- | --- | --- |
| CCO [ethanol] | 1143.9 ± 1.1 | 785.48 ± 0.15 | 1128 ± 1.1 | 781.16 ± 0.15 | 1111.8 ± 1.1 | 776.81 ± 0.15 | 1.35932 ± 0.00031 | 1.35728 ± 0.00031 | 1.35519 ± 0.00031 |  |  |  |  |  |  |  |  |  |
| CCO [ethanol] + CCC[N+]1(C)CCCC1.O=S(=O)([N-]S(=O)(=O)C(F)(F)F)C(F)(F)F |  |  |  |  |  |  |  |  |  | 1143.9 ± 1.1 | 785.48 ± 0.15 | 1128 ± 1.1 | 781.16 ± 0.15 | 1111.8 ± 1.1 | 776.81 ± 0.15 | 1.35932 ± 0.00031 | 1.35728 ± 0.00031 | 1.35519 ± 0.00031 |
| CO [methanol] | 1102.7 ± 1.1 | 786.66 ± 0.15 | 1086.3 ± 1.1 | 781.95 ± 0.15 | 1070.1 ± 1.1 | 777.2 ± 0.15 | 1.3265 ± 0.00031 | 1.32452 ± 0.00031 | 1.32254 ± 0.00031 |  |  |  |  |  |  |  |  |  |
| CO [methanol] + CCC[N+]1(C)CCCC1.O=S(=O)([N-]S(=O)(=O)C(F)(F)F)C(F)(F)F |  |  |  |  |  |  |  |  |  | 1102.7 ± 1.1 | 786.66 ± 0.15 | 1086.3 ± 1.1 | 781.95 ± 0.15 | 1070.1 ± 1.1 | 777.2 ± 0.15 | 1.3265 ± 0.00031 | 1.32452 ± 0.00031 | 1.32254 ± 0.00031 |
| CCCO [propan-1-ol] | 1206.6 ± 1.2 | 799.87 ± 0.14 | 1189.5 ± 1.2 | 795.94 ± 0.14 | 1172.4 ± 1.2 | 791.78 ± 0.15 | 1.38309 ± 0.00031 | 1.38106 ± 0.00031 | 1.37894 ± 0.00031 |  |  |  |  |  |  |  |  |  |
| CCCO [propan-1-ol] + CCC[N+]1(C)CCCC1.O=S(=O)([N-]S(=O)(=O)C(F)(F)F)C(F)(F)F |  |  |  |  |  |  |  |  |  | 1206.6 ± 1.2 | 799.87 ± 0.14 | 1189.5 ± 1.2 | 795.94 ± 0.14 | 1172.4 ± 1.2 | 791.78 ± 0.15 | 1.38309 ± 0.00031 | 1.38106 ± 0.00031 | 1.37894 ± 0.00031 |
